From US9961898B2, “Method for controlling plant disease” (SUMITOMO CHEMICAL COMPANY, LIMITED, priority 2008, dated 2018)

Legend:
Type in all cases: in vivo
Pythium spp. = experiment: Seed treatment, emergence of corn under field conditions; conditions: for Ratio of sound non-transgenic seeds: non-transgenic corn seeds; for Ratio of sound transgenic seeds: transgenic corn seeds (glyphosate tolerance, rootworm resistance)
Protocol: (§1) Ethaboxam, formulated in a flowable concentrate for seed treatment use, was added to water so that the total slurry applied to a specified amount of seed would deliver a designated concentration. The prepared slurry was applied to non-transgenic corn seeds and transgenic corn seeds having both glyphosate tolerance and rootworm resistance. […] Emergence (%) was determined at 7 and 14 DAP and recorded in Table 2.

Pythium ultimum = experiment: Seed treatment, emergence of cotton under field conditions; conditions: for Ratio of sound non-transgenic seeds: non-transgenic cotton seeds; for Ratio of sound transgenic seeds: transgenic cotton seeds (Bacillus thuringiensis endotoxins, glyphosate tolerant)
Protocol: as §1
The same procedure as Test example 2 was conducted, except that cotton seeds which express Bacillus thuringiensis endotoxins and tolerant against glyphosate, were used in place of corn seeds. Disease incited by Pythium ultimum is reduced of the […]. The transgenic cotton source provided higher field stand establishment of seedlings when compared to the non-transgenic cotton. (Table 3).

Pythium disease = experiment: Seed treatment, emergence of corn seedlings in Pythium-infested soil (tray test); conditions: 14 days 10° C. then 11 days 18° C.; for Ratio of sound non-transgenic seeds: non-transgenic corn seeds; for Ratio of sound transgenic seeds: transgenic corn seeds (glyphosate tolerance, rootworm resistance)
Protocol: Ethaboxam, formulated in a flowable concentrate for seed treatment use, was added to water so that the total slurry applied to a specified amount of seed would deliver a designated concentration of ethaboxam per 100 KG seed. The prepared slurry was applied to non-transgenic corn seeds and to transgenic corn seeds having both glyphosate tolerance and rootworm resistance. In a tray, Kimpack (absorbent cellulose wadding, trademark of Kimberly-Clark) was placed and wetted. Each of the corn seed types of each treatment rate was placed on the Kimpack and covered with soil, which is a 1:1 mixture of Pythium-infested field soil and sand. After keeping the soil saturated for 14 days at 10° C., the trays were transferred to 18° C. for 11 days.

## CCNc1nc(CC)c(C(=O)NC(C#N)c2cccs2)s1 (centres unmarked) [ethaboxam, N-(cyano-2-thienylmethyl)-4-ethyl-2-(ethylamino)-5-thiazolecarboxamide]
Pythium spp.; ethaboxam 0.05 gai/100 kg seed
  Ratio of sound non-transgenic seeds: 74.5%
  Ratio of sound transgenic seeds: 86.25%
Pythium spp.; ethaboxam 0.1 gai/100 kg seed
  Ratio of sound non-transgenic seeds: 78.25%
  Ratio of sound transgenic seeds: 85%
Pythium spp.; ethaboxam 0.5 gai/100 kg seed
  Ratio of sound non-transgenic seeds: 76.25%
  Ratio of sound transgenic seeds: 89.25%
Pythium spp.; ethaboxam 1.0 gai/100 kg seed
  Ratio of sound non-transgenic seeds: 77.75%
  Ratio of sound transgenic seeds: 87.75%
Pythium spp.; ethaboxam 5 gai/100 kg seed
  Ratio of sound non-transgenic seeds: 81%
  Ratio of sound transgenic seeds: 86%
Pythium spp.; ethaboxam 10 gai/100 kg seed
  Ratio of sound non-transgenic seeds: 76.25%
  Ratio of sound transgenic seeds: 88.5%
Pythium ultimum; ethaboxam 0.05 gai/100 kg seed
  Ratio of sound non-transgenic seeds: 1.75%
  Ratio of sound transgenic seeds: 7.5%
Pythium ultimum; ethaboxam 0.1 gai/100 kg seed
  Ratio of sound non-transgenic seeds: 6.25%
  Ratio of sound transgenic seeds: 6.25%
Pythium ultimum; ethaboxam 0.5 gai/100 kg seed
  Ratio of sound non-transgenic seeds: 10.25%
  Ratio of sound transgenic seeds: 6%
Pythium ultimum; ethaboxam 1.0 gai/100 kg seed
  Ratio of sound non-transgenic seeds: 7%
  Ratio of sound transgenic seeds: 14.25%
Pythium ultimum; ethaboxam 5 gai/100 kg seed
  Ratio of sound non-transgenic seeds: 9.5%
  Ratio of sound transgenic seeds: 8.5%
Pythium ultimum; ethaboxam 10 gai/100 kg seed
  Ratio of sound non-transgenic seeds: 6.5%
  Ratio of sound transgenic seeds: 17.75%
Pythium disease; ethaboxam 0.05 gai/100 kg seed
  Ratio of sound non-transgenic seeds: 39%
  Ratio of sound transgenic seeds: 57%
Pythium disease; ethaboxam 0.1 gai/100 kg seed
  Ratio of sound non-transgenic seeds: 41%
  Ratio of sound transgenic seeds: 59%
Pythium disease; ethaboxam 0.5 gai/100 kg seed
  Ratio of sound non-transgenic seeds: 47%
  Ratio of sound transgenic seeds: 65%
Pythium disease; ethaboxam 1.0 gai/100 kg seed
  Ratio of sound non-transgenic seeds: 59%
  Ratio of sound transgenic seeds: 67%
